Measured values published in ChEMBL document CHEMBL1201862, “PubChem BioAssay data set” (2004).
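All cell lines were grown in 96-well plates and treated with compound for 48 hours. The concentration for 50% growth inhibition is given as GI50.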 The source made the active and inactive calls. No stated cut-off is given here; in the data, active = GI50 up to about 1.1 µM and inactive = higher.

Experiments:
Test in all cases: NCI tumour cell line growth inhibition, 48 h
SNB-78 = system: SNB-78
DMS-114 = system: DMS-114
OVCAR-4 = system: OVCAR-4
HOP-18 = system: HOP-18
SF-268 = system: SF-268
NCI-H226 = system: NCI-H226
SK-MEL-2 = system: SK-MEL-2
DLD-1 = system: DLD-1
RXF 393 = system: RXF 393
HCT-15 = system: HCT-15
SN12C = system: SN12C
OVCAR-3 = system: OVCAR-3
SR = system: SR
RXF 631 = system: RXF 631
LXFL 529 = system: LXFL 529
HCC 2998 = system: HCC 2998
UACC-62 = system: UACC-62
EKVX = system: EKVX
UO-31 = system: UO-31
NCI-H522 = system: NCI-H522
KM12 = system: KM12
IGROV-1 = system: IGROV-1
U-251 = system: U-251
OVCAR-5 = system: OVCAR-5
SNB-19 = system: SNB-19
RPMI-8226 = system: RPMI-8226
A549 = system: A549
SF-295 = system: SF-295
HOP-92 = system: HOP-92
NCI-H460 = system: NCI-H460
SK-MEL-5 = system: SK-MEL-5
CAKI-1 = system: CAKI-1
UACC-257 = system: UACC-257
ACHN = system: ACHN
NCI-H23 = system: NCI-H23
MOLT-4 = system: MOLT-4
LOX IMVI = system: LOX IMVI
SK-MEL-28 = system: SK-MEL-28
HCT-116 = system: HCT-116
COLO 205 = system: COLO 205
OVCAR-8 = system: OVCAR-8
CCRF-CEM = system: CCRF-CEM
786-0 = system: 786-0
TK-10 = system: TK-10
Malme-3M = system: Malme-3M
HL-60 = system: HL-60
A498 = system: A498
SK-OV-3 = system: SK-OV-3
KM-20L2 = system: KM-20L2
HOP-62 = system: HOP-62
SF-539 = system: SF-539
DMS-273 = system: DMS-273
SNB-75 = system: SNB-75
M14 = system: M14
HT-29 = system: HT-29
K562 = system: K562
SW-620 = system: SW-620
M19-MEL = system: M19-MEL

CCOc1ccccc1/N=C(/NC(=O)CC)SC
GI50 (SNB-78): > 10 µM (inactive) | GI50 (DMS-114): > 10 µM (inactive) | GI50 (OVCAR-4): 85.1 µM (inactive) | GI50 (HOP-18): > 10 µM (inactive) | GI50 (SF-268): > 10 µM (inactive) | GI50 (NCI-H226): > 10 µM (inactive) | GI50 (SK-MEL-2): 38.7 µM (inactive) | GI50 (DLD-1): 88.3 µM (inactive) | GI50 (RXF 393): > 10 µM (inactive) | GI50 (HCT-15): 52.5 µM | GI50 (SN12C): 65.8 µM (inactive) | GI50 (OVCAR-3): > 10 µM (inactive) | GI50 (SR): > 10 µM (inactive) | GI50 (RXF 631): > 10 µM (inactive) | GI50 (LXFL 529): > 10 µM (inactive) | GI50 (HCC 2998): > 10 µM (inactive) | GI50 (UACC-62): > 10 µM (inactive) | GI50 (EKVX): > 10 µM (inactive) | GI50 (UO-31): > 10 µM (inactive) | GI50 (NCI-H522): > 10 µM (inactive) | GI50 (KM12): > 10 µM (inactive) | GI50 (IGROV-1): > 10 µM (inactive) | GI50 (U-251): > 10 µM (inactive) | GI50 (OVCAR-5): > 10 µM (inactive) | GI50 (SNB-19): > 10 µM (inactive) | GI50 (RPMI-8226): 95.9 µM (inactive) | GI50 (A549): > 10 µM (inactive) | GI50 (SF-295): > 10 µM (inactive) | GI50 (HOP-92): > 10 µM (inactive) | GI50 (NCI-H460): > 10 µM (inactive) | GI50 (SK-MEL-5): > 10 µM (inactive) | GI50 (CAKI-1): > 10 µM (inactive) | GI50 (UACC-257): > 10 µM (inactive) | GI50 (ACHN): > 10 µM (inactive) | GI50 (NCI-H23): 70.5 µM (inactive) | GI50 (MOLT-4): 68.4 µM (inactive) | GI50 (LOX IMVI): > 10 µM (inactive) | GI50 (SK-MEL-28): > 10 µM (inactive) | GI50 (HCT-116): 81.1 µM (inactive) | GI50 (COLO 205): > 10 µM (inactive) | GI50 (OVCAR-8): 57 µM (inactive) | GI50 (CCRF-CEM): 64.6 µM (inactive) | GI50 (786-0): > 10 µM (inactive) | GI50 (TK-10): > 10 µM (inactive) | GI50 (Malme-3M): 67.1 µM (inactive) | GI50 (HL-60): > 10 µM (inactive) | GI50 (A498): > 10 µM (inactive) | GI50 (SK-OV-3): > 10 µM (inactive) | GI50 (KM-20L2): > 10 µM (inactive) | GI50 (HOP-62): > 10 µM (inactive) | GI50 (SF-539): > 10 µM (inactive) | GI50 (DMS-273): > 10 µM (inactive) | GI50 (SNB-75): 67.6 µM (inactive) | GI50 (M14): > 10 µM (inactive) | GI50 (HT-29): > 10 µM (inactive) | GI50 (K562): > 10 µM (inactive) | GI50 (SW-620): > 10 µM (inactive) | GI50 (M19-MEL): > 10 µM (inactive)

O=c1/c(=C/c2cccc3ccccc23)sc2nc3ccccc3n12
GI50 (SNB-78): > 100 µM (inactive) | GI50 (DMS-114): > 100 µM (inactive) | GI50 (OVCAR-4): > 100 µM (inactive) | GI50 (HOP-18): > 100 µM (inactive) | GI50 (SF-268): > 100 µM (inactive) | GI50 (NCI-H226): > 100 µM (inactive) | GI50 (SK-MEL-2): > 100 µM (inactive) | GI50 (DLD-1): > 100 µM (inactive) | GI50 (RXF 393): > 100 µM (inactive) | GI50 (HCT-15): > 100 µM | GI50 (SN12C): > 100 µM (inactive) | GI50 (OVCAR-3): > 100 µM (inactive) | GI50 (RXF 631): > 100 µM (inactive) | GI50 (LXFL 529): > 100 µM (inactive) | GI50 (HCC 2998): > 100 µM (inactive) | GI50 (UACC-62): > 100 µM (inactive) | GI50 (EKVX): > 100 µM (inactive) | GI50 (UO-31): > 100 µM (inactive) | GI50 (NCI-H522): > 100 µM (inactive) | GI50 (KM12): > 100 µM (inactive) | GI50 (IGROV-1): > 100 µM (inactive) | GI50 (U-251): > 100 µM (inactive) | GI50 (OVCAR-5): > 100 µM (inactive) | GI50 (SNB-19): > 100 µM (inactive) | GI50 (A549): > 100 µM (inactive) | GI50 (SF-295): > 100 µM (inactive) | GI50 (HOP-92): > 100 µM (inactive) | GI50 (NCI-H460): > 100 µM (inactive) | GI50 (SK-MEL-5): > 100 µM (inactive) | GI50 (CAKI-1): > 100 µM (inactive) | GI50 (UACC-257): > 100 µM (inactive) | GI50 (ACHN): > 100 µM (inactive) | GI50 (NCI-H23): > 100 µM (inactive) | GI50 (LOX IMVI): > 100 µM (inactive) | GI50 (SK-MEL-28): > 100 µM (inactive) | GI50 (HCT-116): > 100 µM (inactive) | GI50 (COLO 205): > 100 µM (inactive) | GI50 (OVCAR-8): > 100 µM (inactive) | GI50 (786-0): > 100 µM (inactive) | GI50 (TK-10): > 100 µM (inactive) | GI50 (Malme-3M): > 100 µM (inactive) | GI50 (HL-60): > 100 µM (inactive) | GI50 (A498): > 100 µM (inactive) | GI50 (KM-20L2): > 100 µM (inactive) | GI50 (HOP-62): > 100 µM (inactive) | GI50 (SF-539): > 100 µM (inactive) | GI50 (DMS-273): > 100 µM (inactive) | GI50 (SNB-75): 71.9 µM (inactive) | GI50 (M14): > 100 µM (inactive) | GI50 (HT-29): > 100 µM (inactive) | GI50 (K562): > 100 µM (inactive) | GI50 (SW-620): > 100 µM (inactive) | GI50 (M19-MEL): > 100 µM (inactive)
